Source: patent publication US20240109917A1 (ACTELION PHARMACEUTICALS LTD, priority 2020, published 2024)
pIC50: −log10 of the molar value. Like-named read-outs stand apart in the source and are kept apart here.

Legend:
[1] = molecular target: His6-TEV-PDGFRβ (557-1016) (Homo sapiens (Human), UniProt P09619); experiment: PDGFRβ HTRF Assay; type: biochemical; conditions: read-out: PDGFR HTRF IC50
Summary of the method: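 Human PDGFRβ (557-1016) pre-incubated with compound for 30 min at RT in pH 7.5 HEPES/MgCl2/EGTA/Brij-35/DTT buffer. Reaction started with ATP and TK-biotin peptide, run 3 h at RT, then quenched with EDTA-containing Eu-cryptate antibody/streptavidin-XL665. HTRF 665/620 nm ratio read after 60 min; percent inhibition relative to DMSO and 10 μM imatinib controls.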

[2] = molecular target: Tb-labeled inactive PDGFRβ (Homo sapiens (Human), UniProt P09619); experiment: PDGFRβ LanthaScreen Assay; type: binding; conditions: read-out: PDGFR Lantha IC50
Tb-labeled inactive PDGFRβ, sequence (P09619 33-1106): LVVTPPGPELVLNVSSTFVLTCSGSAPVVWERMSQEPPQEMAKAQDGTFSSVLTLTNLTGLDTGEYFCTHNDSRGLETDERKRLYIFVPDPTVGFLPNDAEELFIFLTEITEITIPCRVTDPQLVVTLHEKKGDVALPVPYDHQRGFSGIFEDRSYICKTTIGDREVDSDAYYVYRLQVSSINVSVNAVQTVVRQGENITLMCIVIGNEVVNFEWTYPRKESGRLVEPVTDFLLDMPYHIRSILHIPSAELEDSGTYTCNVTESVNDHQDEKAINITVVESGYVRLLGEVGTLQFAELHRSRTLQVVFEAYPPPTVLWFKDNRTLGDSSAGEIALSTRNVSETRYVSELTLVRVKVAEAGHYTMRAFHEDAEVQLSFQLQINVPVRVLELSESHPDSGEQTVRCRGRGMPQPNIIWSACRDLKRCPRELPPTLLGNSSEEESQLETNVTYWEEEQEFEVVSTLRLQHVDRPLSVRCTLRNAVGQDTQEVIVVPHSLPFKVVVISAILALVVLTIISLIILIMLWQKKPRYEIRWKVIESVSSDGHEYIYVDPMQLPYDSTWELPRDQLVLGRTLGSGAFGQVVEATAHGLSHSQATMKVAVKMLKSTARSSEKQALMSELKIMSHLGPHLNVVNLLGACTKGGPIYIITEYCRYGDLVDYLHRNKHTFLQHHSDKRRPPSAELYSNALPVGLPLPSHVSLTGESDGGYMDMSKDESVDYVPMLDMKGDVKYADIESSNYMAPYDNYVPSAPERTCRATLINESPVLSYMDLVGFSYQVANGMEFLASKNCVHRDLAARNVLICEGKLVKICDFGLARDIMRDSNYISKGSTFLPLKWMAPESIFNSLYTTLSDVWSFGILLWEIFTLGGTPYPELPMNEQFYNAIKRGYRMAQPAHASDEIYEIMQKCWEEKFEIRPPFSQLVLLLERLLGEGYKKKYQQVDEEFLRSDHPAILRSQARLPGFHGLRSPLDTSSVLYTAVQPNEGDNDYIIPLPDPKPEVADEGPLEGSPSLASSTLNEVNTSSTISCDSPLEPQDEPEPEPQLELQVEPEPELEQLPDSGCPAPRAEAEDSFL

[3] = molecular target: PDGFRβ (Rattus norvegicus (Rat), UniProt Q05030); experiment: PDGFRβ Cellular Assay (PDGFRb P-Y751 HTRF in A10 cells stimulated with PDGF-BB); type: cell-based
PDGFRβ, sequence (Q05030 32-1097): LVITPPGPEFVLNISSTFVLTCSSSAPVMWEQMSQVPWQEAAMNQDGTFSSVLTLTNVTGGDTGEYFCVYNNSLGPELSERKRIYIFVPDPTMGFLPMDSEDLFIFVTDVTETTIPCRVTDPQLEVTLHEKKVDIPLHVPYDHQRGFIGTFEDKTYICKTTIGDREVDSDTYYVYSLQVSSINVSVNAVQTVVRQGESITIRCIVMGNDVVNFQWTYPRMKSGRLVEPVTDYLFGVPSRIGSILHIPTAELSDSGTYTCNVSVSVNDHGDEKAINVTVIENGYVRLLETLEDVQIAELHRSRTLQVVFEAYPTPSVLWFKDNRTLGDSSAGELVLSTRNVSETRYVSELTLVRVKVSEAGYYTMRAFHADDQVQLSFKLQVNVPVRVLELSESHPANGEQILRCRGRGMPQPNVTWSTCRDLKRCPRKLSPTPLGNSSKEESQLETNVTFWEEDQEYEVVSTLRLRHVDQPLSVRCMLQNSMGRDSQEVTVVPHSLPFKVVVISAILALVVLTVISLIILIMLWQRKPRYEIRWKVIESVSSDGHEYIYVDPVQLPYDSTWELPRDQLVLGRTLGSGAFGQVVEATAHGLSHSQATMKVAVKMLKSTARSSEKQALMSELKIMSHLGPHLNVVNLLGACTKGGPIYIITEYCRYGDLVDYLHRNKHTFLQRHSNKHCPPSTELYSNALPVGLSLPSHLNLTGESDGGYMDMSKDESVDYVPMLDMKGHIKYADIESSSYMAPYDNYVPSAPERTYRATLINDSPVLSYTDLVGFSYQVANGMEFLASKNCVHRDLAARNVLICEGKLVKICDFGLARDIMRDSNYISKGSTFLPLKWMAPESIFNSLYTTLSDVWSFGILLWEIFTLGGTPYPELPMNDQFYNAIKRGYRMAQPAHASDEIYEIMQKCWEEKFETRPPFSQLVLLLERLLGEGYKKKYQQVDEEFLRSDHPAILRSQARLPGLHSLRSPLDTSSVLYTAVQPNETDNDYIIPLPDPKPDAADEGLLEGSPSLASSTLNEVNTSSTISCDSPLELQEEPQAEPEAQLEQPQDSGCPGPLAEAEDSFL
Summary of the method: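 Rat A10 cells, plated overnight, were treated with compound for 3 hours, then stimulated with PDGF-BB (working stock 100 ng/mL in 10% FBS medium). After lysis, PDGFRβ P-Y751 was detected by HTRF.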

His6-TEV-PDGFRβ (557-1016), sequence (P09619 557-1016): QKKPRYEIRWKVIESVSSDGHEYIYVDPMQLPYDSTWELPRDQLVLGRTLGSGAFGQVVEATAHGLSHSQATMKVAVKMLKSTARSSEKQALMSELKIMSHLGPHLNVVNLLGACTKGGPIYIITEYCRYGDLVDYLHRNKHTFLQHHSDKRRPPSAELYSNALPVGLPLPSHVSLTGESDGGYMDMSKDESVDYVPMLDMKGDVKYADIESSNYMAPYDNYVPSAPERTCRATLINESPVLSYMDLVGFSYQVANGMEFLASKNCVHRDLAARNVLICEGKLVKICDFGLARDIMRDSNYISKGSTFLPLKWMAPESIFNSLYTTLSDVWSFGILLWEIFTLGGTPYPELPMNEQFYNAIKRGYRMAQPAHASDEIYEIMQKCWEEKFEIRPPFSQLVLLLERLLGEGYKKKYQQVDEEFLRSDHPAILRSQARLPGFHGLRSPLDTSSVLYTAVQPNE

SMILES	pIC50 [1]	pIC50 [2]	pIC50 ([3]; read-out: PDGFR Cellular IC50)	pIC50 ([3]; PDGFR Cellular IC50)
Cc1ncc(NC(=O)CN2CCC(C)(C)C2)cc1NC(=O)c1cnn2cc(-c3cnn(CCO)c3)sc12 [Example 28, N-(5-(2-(3,3-dimethylpyrrolidin-1-yl)acetamido)-2-methylpyridin-3-yl)-2-(1-(2-hydroxyethyl)-1H-pyrazol-4-yl)pyrazolo[5,1-b]thiazole-7-carboxamide]	9.22	8.38	7.87	–
COCCCc1cn2ncc(C(=O)Nc3cc(C(=O)NCCN4CCCC4(C)C)cnc3C)c2s1 [Example 360, N-(5-((2-(2,2-dimethylpyrrolidin-1-yl)ethyl)carbamoyl)-2-methylpyridin-3-yl)-2-(3-methoxypropyl)pyrazolo[5,1-b]thiazole-7-carboxamide]	8.31	7.00	–	7.23
COc1cccc(-c2cn3ncc(C(=O)Nc4cc(NC(=O)CN5C[C@H](C)O[C@@H](C)C5)cnc4C)c3s2)n1 (relative stereo) [Example 386, N-(5-(2-(trans-2,6-dimethylmorpholino)acetamido)-2-methylpyridin-3-yl)-2-(6-methoxypyridin-2-yl)pyrazolo[5,1-b]thiazole-7-carboxamide]	9.40	8.60	8.42	–
Cc1ncc(NC(=O)[C@H]2CCCN2C(C)C)cc1NC(=O)c1cnn2cc(-c3cnn4c3OCCC4)sc12 [Example 347, (R)-2-(6,7-dihydro-5H-pyrazolo[5,1-b][1,3]oxazin-3-yl)-N-(5-(1-isopropylpyrrolidine-2-carboxamido)-2-methylpyridin-3-yl)pyrazolo[5,1-b]thiazole-7-carboxamide]	9.30	8.22	8.22	–
COCCn1cc(-c2cn3ncc(C(=O)Nc4cc(NC(=O)[C@H]5CCCN5C(C)C)cnc4C)c3s2)cn1 [Example 344, (R)—N-(5-(1-isopropylpyrrolidine-2-carboxamido)-2-methylpyridin-3-yl)-2-(1-(2-methoxyethyl)-1H-pyrazol-4-yl)pyrazolo[5,1-b]thiazole-7-carboxamide]	8.37	7.17	7.23	–
COC/C=C/c1cn2ncc(C(=O)Nc3cc(C(=O)NCCN4CCCC4(C)C)cnc3C)c2s1 [Example 361, (E)-N-(5-((2-(2,2-dimethylpyrrolidin-1-yl)ethyl)carbamoyl)-2-methylpyridin-3-yl)-2-(3-methoxyprop-1-en-1-yl)pyrazolo[5,1-b]thiazole-7-carboxamide]	8.89	7.72	–	7.83
COc1ncc(-c2cn3ncc(C(=O)Nc4cc(NC(=O)CN5CC(C)(C)C5)cnc4C)c3s2)c(OC)n1 [Example 392, 2-(2,4-dimethoxypyrimidin-5-yl)-N-(5-(2-(3,3-dimethylazetidin-1-yl)acetamido)-2-methylpyridin-3-yl)pyrazolo[5,1-b]thiazole-7-carboxamide]	9.30	8.34	–	8.32
COCCn1cc(-c2cn3ncc(C(=O)Nc4cc(NC(=O)CN5CCCC5)cnc4C)c3s2)cn1 [Example 337, 2-(1-(2-methoxyethyl)-1H-pyrazol-4-yl)-N-(2-methyl-5-(2-(pyrrolidin-1-yl)acetamido)pyridin-3-yl)pyrazolo[5,1-b]thiazole-7-carboxamide]	8.74	7.34	7.60	–
COc1ccncc1-c1cn2ncc(C(=O)Nc3cc(NC(=O)CN4C[C@H](C)O[C@@H](C)C4)cnc3C)c2s1 (relative stereo) [Example 385, N-(5-(2-(trans-2,6-dimethylmorpholino)acetamido)-2-methylpyridin-3-yl)-2-(4-methoxypyridin-3-yl)pyrazolo[5,1-b]thiazole-7-carboxamide]	9.10	8.31	8.02	–
COc1ncccc1-c1cn2ncc(C(=O)Nc3cc(NC(=O)CN4CC5(CCOCC5)C4)cnc3C)c2s1 [Example 403, N-(5-(2-(7-oxa-2-azaspiro[3.5]nonan-2-yl)acetamido)-2-methylpyridin-3-yl)-2-(2-methoxypyridin-3-yl)pyrazolo[5,1-b]thiazole-7-carboxamide carboxamide]	9.70	8.89	8.48	–
Cc1ncc(NC(=O)[C@@H]2CCCN2C)cc1NC(=O)c1cnn2cc(-c3cnn4c3OCCC4)sc12 [Example 349, (S)-2-(6,7-dihydro-5H-pyrazolo[5,1-b][1,3]oxazin-3-yl)-N-(2-methyl-5-(1-methylpyrrolidine-2-carboxamido)pyridin-3-yl)pyrazolo[5,1-b]thiazole-7-carboxamide]	9.22	8.06	8.04	–
Cc1ncc(NC(=O)CN2CCCC[C@H]2C)cc1NC(=O)c1cnn2cc(-c3cnn(CCO)c3)sc12 [Example 33, (R)-2-(1-(2-hydroxyethyl)-1H-pyrazol-4-yl)-N-(2-methyl-5-(2-(2-methyl-piperidin-1-yl)acetamido)pyridin-3-yl)pyrazolo[5,1-b]thiazole-7-carboxamide]	9.15	8.03	–	8.00
COCC1CN(CC(=O)Nc2cnc(C)c(NC(=O)c3cnn4cc(-c5cnn(C)c5)sc34)c2)CC(C)(C)O1 (stereo not drawn) [Example 383, N-(5-(2-(6-(methoxymethyl)-2,2-dimethylmorpholino)acetamido)-2-methylpyridin-3-yl)-2-(1-methyl-1H-pyrazol-4-yl)pyrazolo[5,1-b]thiazole-7-carboxamide]	9.00	8.11	7.82	–
COC/C=C/c1cn2ncc(C(=O)Nc3cc(NC(=O)CN4C[C@H](C)O[C@@H](C)C4)cnc3C)c2s1 (relative stereo) [Example 367, N-(5-(2-(trans-2,6-dimethylmorpholino)acetamido)-2-methylpyridin-3-yl)-2-((E)-3-methoxyprop-1-en-1-yl)pyrazolo[5,1-b]thiazole-7-carboxamide]	8.74	7.76	–	7.73
Cc1ncc(NC(=O)CN2C[C@H](C)O[C@@H](C)C2)cc1NC(=O)c1cnn2cc(-c3c(C)n[nH]c3C)sc12 (relative stereo) [Example 373, 2-(3,5-dimethyl-1H-pyrazol-4-yl)-N-(5-(2-(trans-2,6-dimethylmorpholino)acetamido)-2-methylpyridin-3-yl)pyrazolo[5,1-b]thiazole-7-carboxamide]	8.89	8.15	7.25	–
Cc1ncc(NC(=O)C2CCN(C(C)C)C2)cc1NC(=O)c1cnn2cc(-c3cnn(C)c3C)sc12 (stereo not drawn) [Example 356, 2-(1,5-dimethyl-1H-pyrazol-4-yl)-N-(5-(1-isopropylpyrrolidine-3-carboxamido)-2-methylpyridin-3-yl)pyrazolo[5,1-b]thiazole-7-carboxamide]	9.30	7.75	–	7.13
COCCn1cc(-c2cn3ncc(C(=O)Nc4cc(NC(=O)CN5CCC(C6CC6)C5)cnc4C)c3s2)cn1 (stereo not drawn) [Example 341, N-(5-(2-(3-cyclopropylpyrrolidin-1-yl)acetamido)-2-methylpyridin-3-yl)-2-(1-(2-methoxyethyl)-1H-pyrazol-4-yl)pyrazolo[5,1-b]thiazole-7-carboxamide]	9.40	8.34	8.29	–
COc1ncccc1-c1cn2ncc(C(=O)Nc3cc(NC(=O)CN4CC(F)C4)cnc3C)c2s1 [Example 402, N-(5-(2-(3-fluoroazetidin-1-yl)acetamido)-2-methylpyridin-3-yl)-2-(2-methoxypyridin-3-yl)pyrazolo[5,1-b]thiazole-7-carboxamide]	9.52	8.57	8.27	–
Cc1ncc(NC(=O)CN2CCCC23CCC3)cc1NC(=O)c1cnn2cc(-c3cnn(CCO)c3)sc12 [Example 29, N-(5-(2-(5-azaspiro[3.4]octan-5-yl)acetamido)-2-methylpyridin-3-yl)-2-(1-(2-hydroxyethyl)-1H-pyrazol-4-yl)pyrazolo[5,1-b]thiazole-7-carboxamide]	9.40	8.47	8.30	–
Cc1ncc(C(=O)NCCN2CCCC2(C)C)cc1NC(=O)c1cnn2cc(-c3cnn(Cc4cc(O)no4)c3)sc12 [Example 363, N-(5-((2-(2,2-dimethylpyrrolidin-1-yl)ethyl)carbamoyl)-2-methylpyridin-3-yl)-2-(1-((3-hydroxyisoxazol-5-yl)methyl)-1H-pyrazol-4-yl)pyrazolo[5,1-b]thiazole-7-carboxamide]	8.89	7.85	< 5.70	–
Cc1ncc(NC(=O)CN2C[C@H](C)O[C@@H](C)C2)cc1NC(=O)c1cnn2cc(-c3cc[nH]n3)sc12 (relative stereo) [Example 374, N-(5-(2-(trans-2,6-dimethylmorpholino)acetamido)-2-methylpyridin-3-yl)-2-(1H-pyrazol-3-yl)pyrazolo[5,1-b]thiazole-7-carboxamide]	9.40	8.40	7.38	–
Cc1ncc(NC(=O)CN2C[C@H](C)O[C@@H](C)C2)cc1NC(=O)c1cnn2cc(-c3cc[nH]c3)sc12 [Example 365, N-(5-(2-(2,6-trans-dimethylmorpholino)acetamido)-2-methylpyridin-3-yl)-2-(1H-pyrrol-3-yl)pyrazolo[5,1-b]thiazole-7-carboxamide]	9.52	8.62	8.32	–
